This note sets out measurements from patent US20260167619A2, “INDOLINE COMPOUNDS AND DERIVATIVES AS EGFR INHIBITORS” (BeOne Medicines I GmbH, priority 2020, published 2026).

Molecules are shown by their SMILES.

Experiment [1] has as its target T1, EGFR (aa668-1210, Invitrogen) (Homo sapiens, UniProt P00533).
T1 construct: EGFR (aa668-1210, Invitrogen); purchased Invitrogen
Put plainly: Biochemical EGFR inhibition assay (TR-FRET), wild-type EGFR. The settings on record: ATP at Km, 15 min pre-incubation, 60 min reaction; read-out: WT (Km ATP) IC50. A digest of the protocol: (§1)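 Recombinant kinase pre-incubated with compound 15 min at room temperature in 50 mM HEPES pH7.5, 10 mM MgCl2, 2 mM DTT, 1 mM EGTA, 0.1% BSA, 0.01% Tween-20; reaction started with ATP at Km plus biotin-poly GT, run 60 min at RT. HTRF read (665/620 nm); IC50 from four-parameter logistic fit.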

The target of experiment [2] is T2, EGFR(L858R_T790M_C797S) (aa695-end, Invitrogen) (Homo sapiens, UniProt P00533, C797S/L858R/T790M).
T2 construct: purchased Invitrogen
T2 sequence (P00533 695-1210 T790M/C797S/L858R): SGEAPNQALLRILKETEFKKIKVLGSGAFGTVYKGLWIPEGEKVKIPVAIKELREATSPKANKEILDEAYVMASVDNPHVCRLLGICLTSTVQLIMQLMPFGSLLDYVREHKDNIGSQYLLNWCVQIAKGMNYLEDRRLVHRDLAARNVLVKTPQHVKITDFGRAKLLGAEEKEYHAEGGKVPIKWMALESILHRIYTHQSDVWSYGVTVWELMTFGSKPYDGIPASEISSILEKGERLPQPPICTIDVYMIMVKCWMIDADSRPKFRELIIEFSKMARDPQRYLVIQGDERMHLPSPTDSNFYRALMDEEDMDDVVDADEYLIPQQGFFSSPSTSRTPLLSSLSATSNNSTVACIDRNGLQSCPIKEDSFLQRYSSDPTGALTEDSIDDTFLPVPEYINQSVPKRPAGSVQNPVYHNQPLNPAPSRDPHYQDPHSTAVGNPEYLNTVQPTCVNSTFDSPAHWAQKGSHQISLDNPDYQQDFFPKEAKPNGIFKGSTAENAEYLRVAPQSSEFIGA
Put plainly: Biochemical EGFR inhibition assay (TR-FRET), L858R/T790M/C797S mutant. The following applies: ATP at Km, 15 min pre-incubation, 60 min reaction; read-out: LR_TM_CS (Km ATP) IC50. In short, it runs like this: as §1

Experiment [3] addresses EGFR(Dell9_T790M_C797S) (aa 669-1210, in house) (Homo sapiens, UniProt P00533, T790M/C797S, form not given). Put plainly: Biochemical EGFR inhibition assay (TR-FRET), Del19/T790M/C797S mutant. The settings on record: ATP at Km, 15 min pre-incubation, 60 min reaction; read-out: Del_TM_CS (Km ATP) IC50. In short, it runs like this: as §1
The target of the next experiment is BaF3-WT cells (Homo sapiens, UniProt P00533). Put plainly: Cell antiproliferation assay (CellTiter-Glo), BaF3-WT. The experiment is classed as cell-based. The settings on record: 48 h treatment, read-out: BaF3-WT IC50. As for the experimental part:
(§2) BaF3 cells are treated with compounds diluted in 0.2% DMSO, dilution is done according to the following protocol: (1) make 500× stock solution in DMSO from 5 mM by 5-fold dilution, total 8 doses were included; (2) make 10× solution in cell culture medium by transferring 2 μl 500× stock solution into 98 μl medium; (3) 10 μl of 10× solution is added to cells and incubate for 48 h.
(§3) After 48 h treatment, add 30 μl CellTiter-Glo reagent[CellTiter-Glo® 2.0, (Promega, Cat #G9242)] to each well; seal the plate and incubate 2 min at room temperature on a plate shaker; Allow the plate to incubate at room temperature for 10 minutes to stabilize the luminescent signal. Record luminescence on BMG PheraStar with luminescence protocol.
(§4) The IC50 value of a compound can be obtained by fitting the following equation
(§5) Wherein, X and Y are known values, and IC50, Hillslope, Top and Bottom are the parameters obtained by fitting with software. Y is the inhibition percentage (calculated from the equation), X is the concentration of the compound; IC50 is the concentration of the compound when the 50% inhibition is reached. The smaller the IC50 value is, the stronger the inhibitory ability of the compound is. Vice versa, the higher the IC50 value is, the weaker the ability the inhibitory ability of the compound is; Hillslope represents the slope of the fitted curve, generally around 1 *; Bottom represents the minimum value of the curve obtained by data fitting, which is generally 0%±20%; Top represents the maximum value of the curve obtained by data fitting, which is generally 100%±20%. The experimental data were fitted by calculating and analyzing with Dotmatics data analysis software.

Another experiment addresses BaF3-LR_TM_CS cells (Homo sapiens, UniProt P00533, T790M/C797S/L858R, cells depend on it). Put plainly: Cell antiproliferation assay (CellTiter-Glo), BaF3-LR_TM_CS. The experiment is classed as cell-based. The settings on record: 48 h treatment, read-out: BaF3-LR_TM_CS IC50. As for the experimental part:
as §2, §3, §4, §5

Another experiment addresses BaF3-Del_TM_CS cells (Homo sapiens, UniProt P00533, T790M/C797S, cells depend on it, form not given). Briefly: Cell antiproliferation assay (CellTiter-Glo), BaF3-Del_TM_CS. The settings on record: 48 h treatment, read-out: BaF3-Del_TM_CS IC50. The experiment is classed as cell-based. As for the experimental part:
as §2, §3, §4, §5

T1 sequence (P00533 668-1210): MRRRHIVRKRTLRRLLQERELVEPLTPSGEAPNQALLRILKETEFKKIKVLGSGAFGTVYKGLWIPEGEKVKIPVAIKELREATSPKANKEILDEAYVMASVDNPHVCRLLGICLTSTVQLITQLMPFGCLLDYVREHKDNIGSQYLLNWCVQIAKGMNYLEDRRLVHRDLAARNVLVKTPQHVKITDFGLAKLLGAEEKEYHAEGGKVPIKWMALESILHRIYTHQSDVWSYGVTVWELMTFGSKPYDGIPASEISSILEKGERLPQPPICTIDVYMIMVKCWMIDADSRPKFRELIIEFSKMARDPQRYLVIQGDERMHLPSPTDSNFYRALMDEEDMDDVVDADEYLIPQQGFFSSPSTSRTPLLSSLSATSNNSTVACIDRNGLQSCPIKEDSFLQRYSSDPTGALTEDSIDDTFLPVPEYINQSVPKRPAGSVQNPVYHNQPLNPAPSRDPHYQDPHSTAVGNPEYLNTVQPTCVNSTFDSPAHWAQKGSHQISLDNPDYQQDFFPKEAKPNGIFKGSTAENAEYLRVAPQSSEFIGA
BaF3-WT cells, sequence (P00533 whole entry, change not shown): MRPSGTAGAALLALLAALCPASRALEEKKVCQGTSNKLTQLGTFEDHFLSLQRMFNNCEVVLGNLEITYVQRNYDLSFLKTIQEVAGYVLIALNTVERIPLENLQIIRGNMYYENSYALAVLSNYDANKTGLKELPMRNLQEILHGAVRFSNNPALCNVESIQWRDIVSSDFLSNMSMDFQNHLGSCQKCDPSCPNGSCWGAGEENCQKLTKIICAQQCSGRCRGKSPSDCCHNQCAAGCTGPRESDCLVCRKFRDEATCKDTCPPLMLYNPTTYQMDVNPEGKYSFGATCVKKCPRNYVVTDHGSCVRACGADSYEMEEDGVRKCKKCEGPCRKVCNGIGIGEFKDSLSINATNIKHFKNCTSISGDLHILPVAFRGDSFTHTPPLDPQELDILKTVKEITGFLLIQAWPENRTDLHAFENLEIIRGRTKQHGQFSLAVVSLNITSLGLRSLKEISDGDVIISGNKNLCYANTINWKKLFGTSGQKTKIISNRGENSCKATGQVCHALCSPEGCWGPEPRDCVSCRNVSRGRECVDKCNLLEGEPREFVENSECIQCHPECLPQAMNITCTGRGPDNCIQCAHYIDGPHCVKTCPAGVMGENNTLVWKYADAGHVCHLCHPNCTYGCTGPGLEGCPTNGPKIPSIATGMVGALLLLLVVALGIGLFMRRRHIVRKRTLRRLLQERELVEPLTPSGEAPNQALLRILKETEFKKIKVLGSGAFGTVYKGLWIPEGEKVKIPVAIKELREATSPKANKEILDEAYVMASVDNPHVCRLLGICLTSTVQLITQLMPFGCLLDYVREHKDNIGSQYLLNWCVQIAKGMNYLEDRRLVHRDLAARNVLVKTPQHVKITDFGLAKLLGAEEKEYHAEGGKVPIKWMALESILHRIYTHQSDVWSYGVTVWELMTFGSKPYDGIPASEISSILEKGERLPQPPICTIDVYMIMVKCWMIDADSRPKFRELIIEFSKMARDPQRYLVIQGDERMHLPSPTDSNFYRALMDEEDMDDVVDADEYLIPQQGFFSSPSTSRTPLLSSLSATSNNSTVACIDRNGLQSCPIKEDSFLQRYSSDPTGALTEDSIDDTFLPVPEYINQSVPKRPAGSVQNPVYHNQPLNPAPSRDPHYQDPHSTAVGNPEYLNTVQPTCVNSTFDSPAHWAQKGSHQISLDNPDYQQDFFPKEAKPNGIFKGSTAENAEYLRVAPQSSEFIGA
BaF3-LR_TM_CS cells, sequence (P00533 whole entry T790M/C797S/L858R): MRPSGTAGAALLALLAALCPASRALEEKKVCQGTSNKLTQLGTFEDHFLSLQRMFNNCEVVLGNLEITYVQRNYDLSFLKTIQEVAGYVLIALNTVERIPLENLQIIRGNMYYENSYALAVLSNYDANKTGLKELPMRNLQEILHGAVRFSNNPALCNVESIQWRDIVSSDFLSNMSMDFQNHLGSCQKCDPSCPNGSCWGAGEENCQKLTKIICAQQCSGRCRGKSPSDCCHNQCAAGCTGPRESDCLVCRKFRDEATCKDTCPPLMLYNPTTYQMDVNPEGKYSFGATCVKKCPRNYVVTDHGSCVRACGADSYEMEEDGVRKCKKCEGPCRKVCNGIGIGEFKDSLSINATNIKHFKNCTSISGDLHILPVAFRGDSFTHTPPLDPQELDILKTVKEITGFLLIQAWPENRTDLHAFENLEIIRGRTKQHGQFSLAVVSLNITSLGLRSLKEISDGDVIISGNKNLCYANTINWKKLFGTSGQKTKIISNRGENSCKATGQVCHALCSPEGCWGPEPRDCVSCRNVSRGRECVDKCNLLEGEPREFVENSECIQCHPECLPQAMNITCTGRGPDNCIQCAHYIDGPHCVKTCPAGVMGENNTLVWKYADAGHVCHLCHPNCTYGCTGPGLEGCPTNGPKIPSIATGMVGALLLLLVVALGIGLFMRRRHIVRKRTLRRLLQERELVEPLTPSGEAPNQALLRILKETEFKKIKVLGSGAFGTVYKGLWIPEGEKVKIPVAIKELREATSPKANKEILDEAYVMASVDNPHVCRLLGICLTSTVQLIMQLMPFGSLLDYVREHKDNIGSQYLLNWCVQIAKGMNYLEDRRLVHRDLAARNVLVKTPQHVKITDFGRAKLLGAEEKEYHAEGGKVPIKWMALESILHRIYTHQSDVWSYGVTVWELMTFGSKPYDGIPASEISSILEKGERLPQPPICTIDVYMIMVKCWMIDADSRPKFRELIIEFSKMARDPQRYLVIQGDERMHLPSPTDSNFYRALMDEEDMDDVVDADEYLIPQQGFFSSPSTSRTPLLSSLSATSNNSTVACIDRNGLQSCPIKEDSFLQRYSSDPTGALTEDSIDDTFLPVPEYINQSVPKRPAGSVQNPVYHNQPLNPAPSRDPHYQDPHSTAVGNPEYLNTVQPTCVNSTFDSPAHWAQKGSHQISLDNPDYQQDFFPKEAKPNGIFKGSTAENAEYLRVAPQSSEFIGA
EGFR(Dell9_T790M_C797S) (aa 669-1210, in house), sequence (P00533 with tags, fused parts or gaps DEL746-750/T790M/C797S, form open): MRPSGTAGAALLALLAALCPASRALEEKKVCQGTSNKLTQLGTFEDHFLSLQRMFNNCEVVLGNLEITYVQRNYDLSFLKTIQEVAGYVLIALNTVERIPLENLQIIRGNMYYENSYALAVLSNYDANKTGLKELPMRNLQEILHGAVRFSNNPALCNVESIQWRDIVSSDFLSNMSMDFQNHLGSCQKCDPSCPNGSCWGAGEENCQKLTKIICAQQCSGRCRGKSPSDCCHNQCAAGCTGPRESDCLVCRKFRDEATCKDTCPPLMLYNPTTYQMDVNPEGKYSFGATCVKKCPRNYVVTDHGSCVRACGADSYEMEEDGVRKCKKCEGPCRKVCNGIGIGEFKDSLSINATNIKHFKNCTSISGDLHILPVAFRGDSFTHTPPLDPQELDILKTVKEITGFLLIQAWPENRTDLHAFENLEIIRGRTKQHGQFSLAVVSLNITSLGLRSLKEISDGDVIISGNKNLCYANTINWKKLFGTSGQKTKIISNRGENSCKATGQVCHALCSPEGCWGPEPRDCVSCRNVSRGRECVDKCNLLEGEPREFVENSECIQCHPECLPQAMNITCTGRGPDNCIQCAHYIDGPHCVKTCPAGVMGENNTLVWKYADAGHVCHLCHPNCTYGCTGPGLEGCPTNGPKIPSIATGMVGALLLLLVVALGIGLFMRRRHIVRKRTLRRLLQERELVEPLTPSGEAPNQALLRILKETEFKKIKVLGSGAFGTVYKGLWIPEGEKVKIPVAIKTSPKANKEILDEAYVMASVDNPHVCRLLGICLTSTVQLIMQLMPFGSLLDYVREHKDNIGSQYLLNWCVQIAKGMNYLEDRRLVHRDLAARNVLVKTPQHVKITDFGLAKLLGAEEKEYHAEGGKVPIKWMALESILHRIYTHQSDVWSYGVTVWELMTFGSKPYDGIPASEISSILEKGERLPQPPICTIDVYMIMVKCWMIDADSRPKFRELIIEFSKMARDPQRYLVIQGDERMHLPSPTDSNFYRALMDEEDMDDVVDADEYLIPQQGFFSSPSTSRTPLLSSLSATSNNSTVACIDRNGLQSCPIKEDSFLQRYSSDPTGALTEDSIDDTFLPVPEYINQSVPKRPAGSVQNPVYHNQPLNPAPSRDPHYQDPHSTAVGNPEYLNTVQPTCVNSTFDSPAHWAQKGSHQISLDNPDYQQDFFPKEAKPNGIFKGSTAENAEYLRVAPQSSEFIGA

Consider `COc1cc(N2CCC(N3CCN(C)CC3)CC2)ccc1Nc1ncc(Cl)c(Nc2ccc(C)c3c2N(S(C)(=O)=O)CC3)n1` [Example 4, 5-chloro-N^2-(2-methoxy-4-(4-(4-methylpiperazin-1-yl)piperidin-1-yl)phenyl)-N^4-(4-methyl-1-(methylsulfonyl)indolin-7-yl)pyrimidine-2,4-diamine], for which the IC50 turned out to be 0.49 nM in experiment [1], 0.27 nM in experiment [2] and 0.17 nM in experiment [3]. Further, the GI50 at BaF3-WT cells was determined as 466 nM; at BaF3-LR_TM_CS cells, 57.2 nM; on BaF3-Del_TM_CS cells it was 12 nM.
On to `CN1CCN(C2CCN(c3ccc(Nc4ncc(Cl)c(Nc5cccc6c5N(S(C)(=O)=O)CC6)n4)c4c3CCO4)CC2)CC1` [Example 49, 5-chloro-N^2-(4-(4-(4-methylpiperazin-1-yl)piperidin-1-yl)-2,3-dihydrobenzofuran-7-yl)-N^4-(1-(methylsulfonyl)indolin-7-yl)pyrimidine-2,4-diamine], for which the values for the 50% inhibitory concentration (IC50) in experiment [1], in experiment [2] and in experiment [3] were 3.8 nM, 0.95 nM and 0.45 nM, respectively. The GI50 on BaF3-WT cells was determined as 1510 nM; on BaF3-LR_TM_CS cells it was 79.3 nM; on BaF3-Del_TM_CS cells it was 19.3 nM.
In the case of `CN(C)C1CCN(c2ccc(Nc3ncc(Br)c(Nc4cccc5c4N(S(C)(=O)=O)CC5)n3)c3c2OCCO3)CC1` [Example 54, 5-bromo-N^2-(8-(4-(dimethylamino)piperidin-1-yl)-2,3-dihydrobenzo[b][1,4]dioxin-5-yl)-N^4-(1-(methylsulfonyl)indolin-7-yl)pyrimidine-2,4-diamine], the 50% inhibitory concentration (IC50) in experiment [1] worked out at 4.8 nM; in experiment [2], 0.25 nM; in experiment [3], 0.16 nM. The values for the GI50 at BaF3-WT cells, on BaF3-LR_TM_CS cells and on BaF3-Del_TM_CS cells were 372 nM, 42.4 nM and 18.6 nM, respectively.
`COc1cc(N2C[C@H]3CN(C)C[C@H]3C2)c(C)cc1Nc1nc(Nc2cccc3c2N(S(C)(=O)=O)CC3)c2cc[nH]c2n1` [Example 102, N^2-(2-methoxy-5-methyl-4-((3aR,6aS)-5-methylhexahydropyrrolo[3,4-c]pyrrol-2(1H)-yl)phenyl)-N^4-(1-(methylsulfonyl)indolin-7-yl)-7H-pyrrolo[2,3-d]pyrimidine-2,4-diamine]: the 50% inhibitory concentration (IC50) in experiment [1] is 66 nM; in experiment [2], 1.1 nM; in experiment [3] it was 2 nM. The GI50 at BaF3-WT cells was 1710 nM; at BaF3-LR_TM_CS cells, 314 nM; on BaF3-Del_TM_CS cells it was 30.4 nM.
Consider `COc1cc(C2CCN(C)CC2)c(C)cc1Nc1nc(Nc2cccc3c2N(S(C)(=O)=O)CC3)c2cc[nH]c2n1` [Example 99, N^2-(2-methoxy-5-methyl-4-(1-methylpiperidin-4-yl)phenyl)-N^4-(1-(methylsulfonyl)indolin-7-yl)-7H-pyrrolo[2,3-d]pyrimidine-2,4-diamine], for which the IC50 in experiment [1] amounted to 427 nM; in experiment [2], 3 nM; in experiment [3] it was 8.6 nM. In addition, the GI50 on BaF3-WT cells was found to be 1970 nM; on BaF3-LR_TM_CS cells it was 399 nM; at BaF3-Del_TM_CS cells it was 59 nM.
On to `COc1cc(N2CCC(N3CCN(C)CC3)CC2)ccc1Nc1nc(Nc2cccc3c2N(S(C)(=O)=O)CC3)c2nc[nH]c2n1` [Example 72, N^2-(2-methoxy-4-(4-(4-methylpiperazin-1-yl)piperidin-1-yl)phenyl)-N^6-(1-(methylsulfonyl)indolin-7-yl)-9H-purine-2,6-diamine], for which the IC50 in experiment [1] was determined as 3.1 nM; in experiment [2], 1.4 nM; in experiment [3] it was 1.3 nM. Besides, the GI50 was determined as 2600 nM on BaF3-WT cells, 2200 nM at BaF3-LR_TM_CS cells and 246 nM on BaF3-Del_TM_CS cells.
For the compound `CCCS(=O)(=O)N1CCc2cccc(Nc3nc(Nc4ccc(N5CCC(N6CCN(C)CC6)CC5)cc4OC)ncc3Cl)c21` [Example 6, 5-chloro-N^2-(2-methoxy-4-(4-(4-methylpiperazin-1-yl)piperidin-1-yl)phenyl)-N^4-(1-(propylsulfonyl)indolin-7-yl)pyrimidine-2,4-diamine], the IC50 worked out at 8.1 nM in experiment [1], 1.8 nM in experiment [2] and 5.1 nM in experiment [3]. For the same compound, the results for the GI50 on BaF3-WT cells, on BaF3-LR_TM_CS cells and at BaF3-Del_TM_CS cells were 1850 nM, 221 nM and 233 nM, respectively.
Turning to `COc1cc(N2CCC(N3CCN(C)CC3)CC2)ccc1Nc1ncc(C)c(Nc2cccc3c2N(S(C)(=O)=O)CC3)n1` [Example 35, N^2-(2-methoxy-4-(4-(4-methylpiperazin-1-yl)piperidin-1-yl)phenyl)-5-methyl-N^4-(1-(methylsulfonyl)indolin-7-yl)pyrimidine-2,4-diamine], the IC50 in experiment [1] amounted to 0.23 nM; in experiment [2], 0.14 nM; in experiment [3] it was 0.14 nM. Moreover, the GI50 on BaF3-WT cells worked out at 604 nM; at BaF3-LR_TM_CS cells, 222 nM; at BaF3-Del_TM_CS cells it was 79.9 nM.
Regarding `COc1cc(N2CCN(C)[C@@H](C)C2)c(C)cc1Nc1nc(Nc2cccc3c2N(S(C)(=O)=O)CC3)c2cc[nH]c2n1` [Example 105, (S)—N^2-(4-(3,4-dimethylpiperazin-1-yl)-2-methoxy-5-methylphenyl)-N^4-(1-(methylsulfonyl)indolin-7-yl)-7H-pyrrolo[2,3-d]pyrimidine-2,4-diamine], the results for the IC50 in experiment [1], in experiment [2] and in experiment [3] were 455 nM, 5.3 nM and 10 nM, respectively. Also, the figures for the GI50 at BaF3-WT cells, at BaF3-LR_TM_CS cells and on BaF3-Del_TM_CS cells were 2090 nM, 240 nM and 87 nM, respectively.
With `COc1cc(N2CCC(N3CCN(C)CC3)CC2)ccc1Nc1ncc(Cl)c(Nc2cccc3c2N(S(C)(=O)=O)CCC3)n1` [Example 10, 5-chloro-N^2-(2-methoxy-4-(4-(4-methylpiperazin-1-yl)piperidin-1-yl)phenyl)-N^4-(1-(methylsulfonyl)-1,2,3,4-tetrahydroquinolin-8-yl)pyrimidine-2,4-diamine], the IC50 amounted to 2.6 nM in experiment [1], 1.5 nM in experiment [2] and 0.39 nM in experiment [3]. For the same compound, the figures for the GI50 at BaF3-WT cells, on BaF3-LR_TM_CS cells and at BaF3-Del_TM_CS cells were 1870 nM, 143 nM and 46 nM, respectively.
As to `COc1cc(N2CCC(N3CCN(C)CC3)CC2)ccc1Nc1ncc(Br)c(Nc2cccc3c2N(S(C)(=O)=O)CC3)n1` [Example 34, 5-bromo-N2-(2-methoxy-4-(4-(4-methylpiperazin-1-yl)piperidin-1-yl)phenyl)-N4-(1-(methylsulfonyl)indolin-7-yl)pyrimidine-2,4-diamine], the values for the IC50 in experiment [1], in experiment [2] and in experiment [3] were 0.72 nM, 0.21 nM and 0.24 nM, respectively. The GI50 on BaF3-WT cells came to 427 nM; on BaF3-LR_TM_CS cells, 13 nM; at BaF3-Del_TM_CS cells it was 4.25 nM.
As to `CN1CCN(c2ccc(Nc3nc(Nc4cccc5c4N(S(C)(=O)=O)CC5)c4cc[nH]c4n3)cn2)CC1` [Example 123, N^2-(6-(4-methylpiperazin-1-yl)pyridin-3-yl)-N^4-(1-(methylsulfonyl)indolin-7-yl)-7H-pyrrolo[2,3-d]pyrimidine-2,4-diamine], the half-maximal inhibitory concentration (IC50) was 573 nM in experiment [1], 4.8 nM in experiment [2] and 6.3 nM in experiment [3]. The figures for the GI50 at BaF3-WT cells, at BaF3-LR_TM_CS cells and on BaF3-Del_TM_CS cells were 376 nM, 169 nM and 64.3 nM, respectively.
Consider `COc1cc(N2CCC(N3CCN(C)CC3)CC2)c(C)cc1Nc1ncc(Cl)c(Nc2cccc3c2N(S(C)(=O)=O)CC3)n1` [Example 39, 5-chloro-N^2-(2-methoxy-5-methyl-4-(4-(4-methylpiperazin-1-yl)piperidin-1-yl)phenyl)-N^4-(1-(methylsulfonyl)indolin-7-yl)pyrimidine-2,4-diamine], for which the half-inhibitory concentration (IC50) in experiment [1] was 0.36 nM; in experiment [2] it was 0.28 nM; in experiment [3], 0.35 nM. Also, the results for the GI50 on BaF3-WT cells, on BaF3-LR_TM_CS cells and on BaF3-Del_TM_CS cells were 500 nM, 11.4 nM and 4.54 nM, respectively.
